Earlier results in US12662707B2, “MYC amplification drives resistance to pan-RAS inhibitors in pancreatic cancer” (The Trustees of Columbia University in the City of New York, priority 2024, dated 2026).

Test system: autochthonous KPC pancreatic tumors
Conditions: reference 27; cited from earlier work

Nc1ccn([C@@H]2O[C@H](CO)[C@@H](O)C2(F)F)c(=O)n1 [gemcitabine]
effect on survival in the KPC model: do not significantly alter survival
